According to ChEMBL document CHEMBL5120831, “Pep5-based antitumor peptides containing multifunctional fragments with enhanced activity and synergistic effect” (Eur J Med Chem, 2022):
pIC50: −log10 of the molar value. Activity calls are given as the source filed them. The calls are words filed in the database; no cut-off is given here. Bridge positions count the residues as written; N and C are the ends. Peptide text beside a SMILES is read from it. I, II: the chains in the order shown.

Tests used:
HepG2 [1] = experiment: Cytotoxicity against human HepG2 cells assessed as reduction in cell viability measured after 24 hrs by CCK-8 assay; assay type: functional, cell-based; settings: for pIC50: HepG2, 24 h
[2] = Cytotoxicity against human L02 cells assessed as reduction in cell viability measured after 24 hrs by CCK-8 assay; assay type: toxicity, cell-based
A549 [3] = experiment: Cytotoxicity against human A549 cells assessed as reduction in cell viability measured after 24 hrs by CCK-8 assay; assay type: functional, cell-based; settings: for pIC50: A549, 24 h
[4] = Cytotoxicity against human BEAS-2B cells assessed as reduction in cell viability measured after 24 hrs by CCK-8 assay; assay type: toxicity, cell-based
HepG2 [5] = experiment: Induction of morphological changes in human HepG2 cells assessed as decrease in cell number at 15 uM measured after 24 hrs by high-throughput microscopy; assay type: functional, cell-based
HepG2 [6] = experiment: Induction of morphological changes in human HepG2 cells assessed as appearance of abnormal cell morphology at 15 uM measured after 24 hrs by high-throughput microscopy; assay type: functional, cell-based
HepG2 [7] = experiment: Induction of apoptosis in human HepG2 cells assessed as increase in late apoptotic cells at 15 uM measured after 24 hrs by Annexin V-FITC/propidium iodide staining based flow cytometry; assay type: functional, cell-based
HepG2 [8] = experiment: Induction of apoptosis in human HepG2 cells assessed as increase in necrotic cells at 15 uM measured after 24 hrs by Annexin V-FITC/propidium iodide staining based flow cytometry; assay type: functional, cell-based
A549 [9] = experiment: Induction of apoptosis in human A549 cells assessed as increase in late apoptotic cells at 15 uM measured after 24 hrs by Annexin V-FITC/propidium iodide staining based flow cytometry; assay type: functional, cell-based
A549 [10] = experiment: Induction of apoptosis in human A549 cells assessed as increase in necrotic cells at 15 uM measured after 24 hrs by Annexin V-FITC/propidium iodide staining based flow cytometry; assay type: functional, cell-based
L02 = experiment: Induction of apoptosis in human L02 cells assessed as reduction in viable cells at 15 uM measured after 24 hrs by Annexin V-FITC/propidium iodide staining based flow cytometry; assay type: toxicity, cell-based; settings: l02, 24 h
BEAS-2B = experiment: Induction of apoptosis in human BEAS-2B cells assessed as reduction in viable cells at 15 uM measured after 24 hrs by Annexin V-FITC/propidium iodide staining based flow cytometry; assay type: toxicity, cell-based
A549 [11] = experiment: Induction of cell membrane disruption in human A549 cells assessed as increase in LDH release at 15 uM measured after 1 hr by LDH releasing reagent based assay
HepG2 [12] = experiment: Induction of cell membrane disruption in human HepG2 cells assessed as increase in LDH release at 15 uM measured after 1 hr by LDH releasing reagent based assay
HepG2 [13] = experiment: Antitumor activity against human HepG2 cells xenografted in sc dosed BALB/c nude mouse assessed as tumor growth inhibition administered at 1 day interval for 9 days; assay type: functional, organism-based; settings: dose 25-50 µM, time 9.0 day, DDE = dose-dependent effect
HepG2 [14] = experiment: Antitumor activity against human HepG2 cells xenografted in BALB/c nude mouse assessed as reduction in tumor volume at 25 to 50 uM, sc administered at 1 day interval for 9 days; assay type: functional, organism-based; settings: dose 25-50 µM, time 9.0 day
[15] = Toxicity in HepG2 cell xenografted BALB/c nude mouse assessed as change in body weight at 25 to 50 uM, sc administered at 1 day interval for 9 days; assay type: organism-based; settings: in vivo, 216 h, dose 25-50 µM, time 9 day
HepG2 [16] = experiment: Antitumor activity against human HepG2 cells xenografted in BALB/c nude mouse assessed as appearance of fuzzy boundary region at 25 to 50 uM, sc administered at 1 day interval for 9 days and measured on day 11 by H and E staining based histological analysis; assay type: functional, organism-based; settings: dose 25-50 µM, time 11.0 day
HepG2 [17] = experiment: Antitumor activity against human HepG2 cells xenografted in BALB/c nude mouse assessed as missing nuclei at 25 to 50 uM, sc administered at 1 day interval for 9 days and measured on day 11 by H and E staining based histological analysis; assay type: functional, organism-based; settings: dose 25-50 µM, time 11.0 day
HepG2 [18] = experiment: Antitumor activity against human HepG2 cells xenografted in BALB/c nude mouse assessed as induction of apoptosis at 25 to 50 uM, sc administered at 1 day interval for 9 days and measured on day 11 by TUNEL staining based assay; assay type: functional, organism-based; settings: dose 25-50 µM, time 11.0 day
HepG2 [19] = experiment: Induction of apoptosis in human HepG2 cells assessed as reduction in viable cells at 15 uM measured after 24 hrs by Annexin V-FITC/propidium iodide staining based flow cytometry; assay type: functional, cell-based
A549 [20] = experiment: Induction of apoptosis in human A549 cells assessed as reduction in viable cells at 15 uM measured after 24 hrs by Annexin V-FITC/propidium iodide staining based flow cytometry; assay type: functional, cell-based

| SMILES | pIC50 (HepG2 [1]) | IC50 at 24 h [2] [µM] | pIC50 (A549 [3]) | IC50 at 24 h [4] [µM] | Activity (L02) | Activity (BEAS-2B) | Activity (A549 [11]) | Activity (HepG2 [12]) | further results |
| --- | --- | --- | --- | --- | --- | --- | --- | --- | --- |
| CC(C)C[C@H](NC(=O)[C@H](CCCCN)NC(=O)CNC(=O)[C@H](CC(C)C)NC(=O)[C@@H](NC(=O)[C@@H](NC(=O)[C@H](CC(C)C)NC(=O)[C@H](CCC(=O)O)NC(=O)[C@@H](N)Cc1c[nH]c2ccccc12)C(C)C)C(C)C)C(=O)N[C@@H](Cc1ccc(O)cc1)C(=O)NCC(=O)N[C@@H](CCCNC(=N)N)C(=O)N[C@@H](CCCCN)C(=O)N[C@@H](CCCCN)C(=O)N[C@@H](CCCNC(=N)N)C(=O)N[C@@H](CCCNC(=N)N)C(=O)N[C@@H](CCC(N)=O)C(=O)N[C@@H](CCCNC(=N)N)C(=O)N[C@@H](CCCNC(=N)N)C(=O)N[C@@H](CCCNC(=N)N)C(=O)O (H-WELVVLGKLYGRKKRRQRRR-OH) | 4.51 | 63.9 | 4.51 | 32.9 | Non-Toxic | Non-Toxic | Active | Active | Activity (HepG2 [1]; DDE = dose-dependent effect): Dde; Activity (A549 [3]; DDE = dose-dependent effect): Dde; Activity (HepG2 [5]): Active; Activity (HepG2 [6]): Active; Activity (HepG2 [7]): Active; Activity (HepG2 [8]): Active; Activity (A549 [9]): Active; Activity (A549 [10]): Active; TGI (HepG2 [13]): Dde; Activity (HepG2 [14]): Active; Activity [15]: Non-Toxic; Activity (HepG2 [16]): Active; Activity (HepG2 [17]): Active; Activity (HepG2 [18]): Active |
| CC[C@H](C)[C@H](NC(=O)[C@H](CCCCN)NC(=O)[C@H](CC(N)=O)NC(=O)[C@H](CCCNC(=N)N)NC(=O)[C@H](Cc1ccccc1)NC(=O)[C@H](CCCCN)NC(=O)[C@H](CCCNC(=N)N)NC(=O)[C@H](CC(C)C)NC(=O)[C@H](CCCNC(=N)N)NC(=O)[C@H](CCCCNC(=O)[C@H](CCCCN)NC(=O)[C@H](CCC(=O)O)NC(=O)[C@H](CCCCN)NC(=O)[C@@H](NC(=O)[C@H](CCCCN)NC(=O)[C@H](CC(N)=O)NC(=O)[C@H](CCCNC(=N)N)NC(=O)[C@H](Cc1ccccc1)NC(=O)[C@H](CCCCN)NC(=O)[C@H](CCCNC(=N)N)NC(=O)[C@H](CC(C)C)NC(=O)[C@H](CCCNC(=N)N)NC(=O)[C@H](CCCCN)NC(=O)[C@H](CCCNC(=N)N)NC(=O)[C@H](CC(C)C)NC(=O)CN)[C@@H](C)CC)NC(=O)[C@H](CCCNC(=N)N)NC(=O)[C@H](CC(C)C)NC(=O)CN)C(=O)N[C@@H](CCCCN)C(=O)N[C@@H](CCC(=O)O)C(=O)N[C@@H](CCCCN)C(=O)O (I: H-GLRKRLRKFRNKIKEK / II: H-GLRKRLRKFRNKIKEK-OH; amide I:C-II:4) | 4.46 | 70.7 | 4.25 | 93.6 | Non-Toxic | Non-Toxic | Active | Active | Activity (HepG2 [19]): Active; Activity (A549 [20]): Active |
